Series [1] deals with differentiated PAZ-6 human adipocytes. The series can be described thus: Lipolysis assay (glycerol release) on the PAZ-6 line. It is filed as cell-based. The conditions noted are these: differentiated PAZ-6 adipocytes; 2 hours at 37° C.; forskolin 10^-4 M, other agonists 10^-5 M; catecholamines with or without phentolamine 20 μg/ml. As for the experimental part:
The lipolysis test consists in measuring the amount of glycerol generated by the mature adipocytes treated with lipolytic ligands.
Monolayers of (differentiated) mature adipocytes in culture plates (6 wells) are washed and preincubated overnight in DMEM/Ham's F12 (1:1, v/v) comprising 1% of fatty acid-free BSA. The cells are then incubated in a Krebs-Ringer phosphate buffer (pH 7.4) comprising 2% of fatty acid-free BSA, 4.5 g/l of glucose, 50 μg/ml of Na2 S2 O5 and the β-adrenergic ligands, in a volume of 500 μl, for 2 hours at 37° C.
The glycerol level is measured on 100 μl of incubation medium by following the reduction of NAD to NADH at 340 nm in the presence of 10 μg/ml of glycerol dehydrogenase (derived from Enterobacter aerogenes, Boehringer Mannheim) in the following reaction buffer: K2 CO3 /NaHCO3 125 mM pH 10, NAD 3.5 mM and (NH4)2 SO4 330 mM.

Series [2] has as its system β-adrenergic receptors coupled with adenylyl cyclase in PAZ-6 cells. The conditions noted are these: for Accumulation of cAMP, pmol cAMP/mg protein: agonist 15 min at 37° C.
Procedure: (§1) The following method is used to determine the intracellular levels of cAMP:
(§2) The incubation buffer is removed and the cells are lyzed in 1 M NaOH for at least 20 min at 37° C. The lyzate is neutralized with 1 M acetic acid and centrifuged in a microcentrifuge at maximum speed for 5 min.
(§3) The supernatant is used to determine the cAMP (cAMP-^3 H kit, Amersham).
The target of series [3] is β-adrenergic receptors coupled with adenylyl cyclase in PAZ-6 cells (Homo sapiens, UniProt P13945). The note with it: differentiated PAZ-6; 15 min.
Procedure: as §1, §2, §3
A further series relates to PAZ-6 preadipocytes. The experiment in a line: Differentiation of PAZ-6 preadipocytes into mature adipocytes. The note with it: in the presence of insulin and dexamethasone; 1 μM pioglitazone. It is filed as cell-based, human. As to the method: The cells are inoculated at a density of 10,000 cells/cm^2 and cultivated for 3 days in a medium containing 6% of foetal calf serum in order to obtain confluence; an ITT medium (DMEM/HAM F12 medium supplemented with biotin, pantothenate, Hepes, T3, penicillin and streptomycin, as defined above) is then added to said cells, said medium also containing 0.1 μM dexamethasone, 850 nM insulin, 1 μM pioglitazone and 0.25 mM IBMX (3-isobutyl-1-methylxanthine) for 4 days.

In series [4] the test system is β-adrenergic receptors (I-CYP binding sites) of PAZ-6 cells. As to the method:
* determination of the binding sites for the β antagonist ligand iodocyanopindolol (I-CYP) in the PAZ-6 cell line
The cells are washed with PBS, incubated for 5 minutes at 37° C. with a solution of trypsin/2% EDTA and resuspended in DMEM supplemented with 10% (v/v) of horse serum.
After centrifugation at 450×g for 5 minutes at 4° C., the cellular residue is washed twice with PBS and the cells are then resuspended in PBS.
The actual binding assay itself is carried out for 90 min at 25° C. in a final volume of […] of PBS supplemented with 50 mg/ml of bovine serum albumin and 1 mM desipramine.
The reaction is stopped by rapid filtration through a Whatman GF/C glass fibre filter previously immersed for 30 min in a solution of PBS containing 0.3% of polyethyleneimine (to reduce the non-specific bindings).
The protein concentrations are determined by the method of M. Bradford (Anal. Biochem., 1976, 72, 248-256).
Bovine serum albumin is used as the standard and the cellular suspensions are homogenized with a Polytron homogenizer for a maximum of 5 seconds before the reaction.

The subject of a further series is Ob mice. The conditions noted are these: Ob mice with mutant gene; injected; cited from earlier work.
The test system of series [5] is mRNA coding for the Ob protein. The note with it: rat adipocytes; cited from earlier work.

Where two headings read alike, the source gives them in different places.

Sequence of β-adrenergic receptors coupled with adenylyl cyclase in PAZ-6 cells (Homo sapiens, UniProt P13945) (P13945 whole entry): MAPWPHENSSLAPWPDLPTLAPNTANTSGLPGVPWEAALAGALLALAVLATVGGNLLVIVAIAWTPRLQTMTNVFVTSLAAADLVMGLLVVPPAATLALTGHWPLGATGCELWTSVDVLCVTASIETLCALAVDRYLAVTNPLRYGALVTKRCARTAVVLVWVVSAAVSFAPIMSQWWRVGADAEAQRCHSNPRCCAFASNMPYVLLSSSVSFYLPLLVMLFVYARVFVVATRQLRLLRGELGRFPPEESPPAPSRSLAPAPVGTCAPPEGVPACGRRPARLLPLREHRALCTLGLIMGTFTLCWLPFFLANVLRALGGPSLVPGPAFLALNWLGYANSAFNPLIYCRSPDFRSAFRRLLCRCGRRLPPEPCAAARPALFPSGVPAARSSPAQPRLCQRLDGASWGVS

Regarding `CNC[C@H](O)c1ccc(O)c(O)c1` [epinephrine], the “lipolysis (glycerol generated relative to basal level, FIG. 4)” value in series [1] was “lipolysis induced”.

For `CC(C)(C)NCC(O)COc1cccc2[nH]c(=O)[nH]c12` (stereo not shown) [CGP 12177A], the “lipolysis (glycerol generated relative to basal level, FIG. 4)” value in series [1] is “Lipolysis is also seen to be induced”. In addition, the entries for the “Accumulation of cAMP, pmol cAMP/mg protein” value in series [2] (PAZ-6 differentiated) and in series [2] (PAZ-6 not differentiated) were 323 ± 129 pmol cAMP/mg protein and 254 ± 167 pmol cAMP/mg protein, respectively. In addition, the “stimulation of the adenylyl cyclase” value in series [2] (undifferentiated PAZ-6) is given as “does not cause any significant stimulation”. For the same molecule, the “stimulation (cAMP) compared with isoproterenol activating all β-AR sites” value in series [3] is recorded as 20%.

In the case of `O=C(O)COc1ccc(OCCNCC(O)COc2ccccc2)cc1` (stereo not shown) [ICI 201651], in series [1], the “lipolysis (glycerol generated relative to basal level, FIG. 4)” value is listed as “Lipolysis is also seen to be induced”.

Take `CCc1ccc(CCOc2ccc(CC3SC(=O)NC3=O)cc2)nc1` (stereo not shown) [pioglitazone]: the “differentiation into mature adipocytes” value in the series with PAZ-6 preadipocytes is listed as “significantly increased”.

As for `Cc1ccc(OCC(O)C(C)NC(C)C)c2c1CCC2` (stereo not shown) [ICI 118551], in series [4], the “reduction of the number of I-CYP binding sites” value was determined as 34%.

As for `NC[C@H](O)c1ccc(O)c(O)c1` [norepinephrine], the “lipolysis (glycerol generated relative to basal level, FIG. 4)” value in series [1] is recorded as “lipolysis induced”.

Take “leptin: leptin (Ob protein), product of the Ob gene”: the appetite and obesity result in the series on Ob mice was “reduces appetite and hence obesity”.

For the molecule `C=C[C@@]1(C)CC(=O)[C@]2(O)[C@@]3(C)[C@@H](O)CCC(C)(C)[C@@H]3[C@H](O)[C@H](OC(C)=O)[C@@]2(C)O1` [forskolin], the “lipolysis (glycerol generated relative to basal level, FIG. 4)” value in series [1] is reported as “lipolysis induced”.

Consider `CC(C)NCC(O)c1ccc(O)c(O)c1` (stereo not shown) [isoproterenol, isoprenaline], for which the figures for the “Accumulation of cAMP, pmol cAMP/mg protein” value in series [2] (PAZ-6 differentiated) and in series [2] (PAZ-6 not differentiated) were 2083 pmol cAMP/mg protein and 4344 pmol cAMP/mg protein, respectively.

Turning to `C[C@H](Cc1ccc2c(c1)OC(C(=O)O)(C(=O)O)O2)NC[C@H](O)c1cccc(Cl)c1` [CL 316,43], the “lipolysis (glycerol generated relative to basal level, FIG. 4)” value in series [1] was “Lipolysis is also seen to be induced”. The “levels of mRNA coding for the Ob protein” value in series [5] was “reduce substantially”.

Values taken from US6071747A, “Immortalized cell lines from human adipose tissue, process for preparing same and applications thereof” (Centre National de la Recherche Scientifique-CNRS, priority 1995, dated 2000).
